# Laboratory results from patent US20250340579A1 (priority 2022, published 2025).
# How the values were obtained:
# [1] = pH 7.4
# [2] = in vivo; cited from earlier work
molecule,measurement,setting,value
bis-aminotetrazole-cobinamide,solution stability,[1],stable at room temperature when protected from bright light
C/C1=C2/[N-][C@H]([C@H](CC(N)=O)[C@@]2(C)CCC(=O)NC[C@@H](C)O)[C@]2(C)N=C(/C(C)=C3N=C(/C=C4N=C1[C@@H](CCC(N)=O)C\4(C)C)[C@@H](CCC(N)=O)[C@]\3(C)CC(N)=O)[C@@H](CCC(N)=O)[C@]2(C)CC(N)=O.[Co+3] [Cobinamide],effectiveness post-cyanide exposure versus pre-exposure,[2],as effective when administered up to 5 minutes post-cyanide exposure as when given pre-exposure
